Experimental data: patent EP1649856A2, “Use of pimecrolimus for selective immunomodulation” (Novartis AG, priority 2001, dated 2002)

Key:
[1] = tested on: SCID mice reconstituted with CD4^+CD45RB^HI T cells; assay: SCID-IBD mouse model, treatment from day 1 for 4 weeks; type: in vivo; settings: 3 and 10 mg/kg/day p.o., steroid-related
Description: A well-established animal model for IBD exists (see Leach et al., Am. J. Pathol., Vol. 148, No. 5, pp. 1503-1515 (1996), and Powrie et al., Int. Immunol., Vol. 5, No. 11, pp. 1461-1471 (1993)). It is known that the transfer of syngeneic, naive T lymphocytes (CD4^+CD45RB^HI) into SCID mice results in a severe colitis and wasting disease, SCID-IBD. Histopathologically, features of both CD and UC are represented in this model which has been used throughout the 1990s to bring the understanding of the pathoetiology of this disease of immune dysregulation in man to its present status. There is no other animal model of IBD which is considered relevant for the human disease, both in mechanism and in validity of clinical treatment.
In this study, SCID mice reconstituted with CD4^+CD45RB^HI T lymphocytes were used. These mice are known to develop chronic colitis with characteristics similar to human IBD, as described above.
In this study, SCID mice were reconstituted with 2 x 10^5 CD4^+CD45RB^HI T cells and then treated with pimecrolimus (30, 60 and 100 mg/kg/day) or vehicle daily p.o. for 4 weeks. […] BW was monitored throughout. On termination, blood was withdrawn, spleen, mesenteric lymph nodes (MLN) and colon were removed. Serum haptoglobin levels were measured (ELISA), colitis was assessed histologically and lymphocyte and neutrophil numbers were calculated from FACS analysis of blood, spleen and MLN cell suspensions.
In order to determine the efficacy of ASM981 treatment in preventing intestinal mucosal damage in SCID-IBD mice, a histological examination of the colon sections was performed according to defined morphological parameters. All colon sections were assessed according to a scheme awarding degrees of severity governed by the extent of cell infiltration and inflammation with a score of 8 being the maximum.

[2] = in vivo; parameters: species or system rats; settings: rat, skin; 2 oral doses of 25 mg/kg in an interval of 2 hours; 6 hours after the last dosing; read-out: skinlblood concentration ratio
Procedure: In another study designed to explore the differences between pimecrolimus and FK506 and to determine whether these differences might be associated with a different tissue distribution, the exposure to pimecrolimus and FK506 in various organs after oral administration were measured. Animals received 2 oral doses of 25 mg/kg in an interval of 2 hours. […] Pimecrolimus was found consistently to have a higher skinlblood concentration ratio than FK506 (2 hours: 7.3 vs. 2.8; 6 hours: 13 vs. 1.6; 24 hours: 36 vs. 6.0). The AUC0-24h in skin calculated for pimecrolimus was twice as high as with FK506.
These distribution characteristics are relevant not only for oral, but also for topical application, as the compound enters systemic circulation after permeation through the skin.

C[C@@H]1C[C@H]2[C@@H]3CCC4=CC(=O)C=C[C@]4(C)[C@@]3(F)[C@@H](O)C[C@]2(C)[C@@]1(O)C(=O)CO [Dexamethasone, reference compound]
effect on BW [1]: accelerated loss in BW

C=CC[C@@H]1/C=C(\C)C[C@H](C)C[C@H](OC)[C@H]2O[C@@](O)(C(=O)C(=O)N3CCCC[C@H]3C(=O)O[C@H](/C(C)=C/[C@@H]3CC[C@@H](O)[C@H](OC)C3)[C@H](C)[C@@H](O)CC1=O)[C@H](C)C[C@@H]2OC [FK506, tacrolimus, reference compound]
Kp at 6 h [2]: 1.6
